Results taken from patent US7049340B1, “Neuroprotective and retinoprotective ophthalmologic drugs” (priority 1999, dated 2006).

Tested on: patient with Stargardt's disease, fundus flavimaculatus
Assay: Clinical treatment of Stargardt's flavimaculatus disease: visual acuity
Type: in vivo, human
Conditions: for visual acuity after treatment: one patient
Protocol: The invention will now be illustrated by the following description of clinical examples which, of course, are not limiting in nature. In these examples the active principle, in particular ramipril, was administered continuously in an oral form, in an amount of 1.25 mg per day.
Ramipril was used in the following three disorders: retinitis pigmentosa; Stargardt's disease, fundus flavimaculatus; adult pseudo-vitelliform dystrophy.
One patient was treated; acuity improved from 1/20 to 1/10 in the right eye and from 1/50 to 3/10 in the left eye.

`CCOC(=O)[C@H](CCc1ccccc1)N[C@@H](C)C(=O)N1[C@H](C(=O)O)C[C@@H]2CCC[C@@H]21` [ramipril] was tested, and the visual function (Stargardt's disease, fundus flavimaculatus, all cases) was “improvement in visual function”, the “visual acuity after treatment” value (left eye, before 1/50) was 3/10 and the “visual acuity after treatment” value (right eye, before 1/20) was 1/10.
